Assay results reported in US9138411B2 (University of North Texas Health Science Center, priority 2012, dated 2015).

Settings: human, in vivo, 4.5 mg/kg

Question: With `COc1cc(/C=C/C(=O)CC(=O)/C=C/c2ccc(O)c(OC)c2)ccc1O` [curcumin, diferuloylmethane] as the molecule, how does the blood plasma levels read?
Answer: The blood plasma levels was 5 to 11 µmol.
